≈ marks a conversion by molar mass, not a printed value.
What was measured:
[1] = target: T1, Tyrosine-protein kinase JAK2 (Homo sapiens, UniProt O60674); assay: Inhibition of JAK2 in cell-free system
[2] = target: T1, Tyrosine-protein kinase JAK2; assay: Inhibition of JAK2 expressed in human Du-145 cells; assay type: cell-based
[3] = Clearance in Sprague-Dawley rat at 1 mg/kg, iv; assay type: ADME, organism-based; design: dose 1 mg/kg, route intravenous; conditions: in vivo
[4] = Volume of distribution in Sprague-Dawley rat at 1 mg/kg, iv; assay type: ADME, organism-based; design: dose 1 mg/kg, route intravenous; conditions: in vivo
[5] = Lipophilicity log D of the compound at pH 7.4 by HPLC; assay type: physicochemical; conditions: buffer
[6] = Aqueous solubility of the compound at pH 7; assay type: physicochemical
Mus musculus [7] = assay: Inhibition of JAK2 in erythropoietin-treated […] mouse assessed as reduction in pSTAT5 level in whole blood at 30 mg/kg, po measured after 1 and 3 hrs; assay type: functional, organism-based; design: dose 30 mg/kg, route oral
Mus musculus [8] = assay: Inhibition of JAK2 in erythropoietin-treated […] mouse assessed as reduction in pSTAT5 level in whole blood at 90 mg/kg, po measured after 1 and 3 hrs; assay type: functional, organism-based; design: dose 90 mg/kg, route oral

T1 sequence (O60674 whole entry): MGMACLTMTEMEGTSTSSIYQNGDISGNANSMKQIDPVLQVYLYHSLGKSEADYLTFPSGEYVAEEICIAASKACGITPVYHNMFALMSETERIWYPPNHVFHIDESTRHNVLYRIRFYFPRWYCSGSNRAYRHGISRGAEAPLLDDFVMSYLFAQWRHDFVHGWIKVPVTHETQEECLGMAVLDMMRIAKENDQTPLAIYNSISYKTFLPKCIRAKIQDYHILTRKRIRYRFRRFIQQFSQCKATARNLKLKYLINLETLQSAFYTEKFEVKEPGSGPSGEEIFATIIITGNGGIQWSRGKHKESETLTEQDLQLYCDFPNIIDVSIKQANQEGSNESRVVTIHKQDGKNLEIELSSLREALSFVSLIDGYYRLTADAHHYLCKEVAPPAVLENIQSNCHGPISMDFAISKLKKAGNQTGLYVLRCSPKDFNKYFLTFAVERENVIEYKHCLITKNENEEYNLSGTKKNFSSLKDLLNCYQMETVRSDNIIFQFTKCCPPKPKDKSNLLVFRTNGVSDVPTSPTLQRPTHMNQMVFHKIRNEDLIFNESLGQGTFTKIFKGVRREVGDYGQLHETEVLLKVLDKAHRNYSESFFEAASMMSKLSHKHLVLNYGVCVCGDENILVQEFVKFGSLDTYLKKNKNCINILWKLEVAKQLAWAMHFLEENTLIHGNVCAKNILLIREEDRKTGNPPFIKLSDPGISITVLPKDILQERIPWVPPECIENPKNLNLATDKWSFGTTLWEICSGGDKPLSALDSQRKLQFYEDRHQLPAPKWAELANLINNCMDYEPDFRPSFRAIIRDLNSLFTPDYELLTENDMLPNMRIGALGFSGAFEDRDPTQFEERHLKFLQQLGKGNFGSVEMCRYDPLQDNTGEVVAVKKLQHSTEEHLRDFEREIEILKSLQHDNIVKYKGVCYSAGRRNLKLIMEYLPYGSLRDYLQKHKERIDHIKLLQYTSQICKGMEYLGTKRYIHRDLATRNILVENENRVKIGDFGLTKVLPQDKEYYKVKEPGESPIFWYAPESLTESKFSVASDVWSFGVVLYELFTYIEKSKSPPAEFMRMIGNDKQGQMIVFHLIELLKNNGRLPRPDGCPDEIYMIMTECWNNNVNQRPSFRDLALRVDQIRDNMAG

Row | Compound | IC50 [1] [nM] | other results
1 | O=c1[nH]ccc2nc(Nc3cccc(F)c3)c3ccc(F)cc3c12 | 4100 | 
2 | CC(Nc1nc2cc[nH]c(=O)c2cc1C(=O)NCCN(C)C)C(C)(C)C (stereo unspecified) | 8350 | 
3 | O=c1[nH]ccc2nc(NC3CC(F)(F)C3)c3ccc(F)cc3c12 | 750 | 
4 | CC(Nc1nc2cc[nH]c(=O)c2cc1-c1ccc(F)cc1)c1cc(F)c(Cl)cc1Cl (stereo unspecified) | 11800 | 
5 | O=c1[nH]ccc2nc(Nc3c(F)cc(F)cc3Cl)c3ccc(F)cc3c12 | 4 | 
6 | O=c1[nH]ccc2nc(Nc3c(Cl)cccc3Cl)c3ccc(F)cc3c12 | 14 | 
7 | CC(C)(CO)CNc1nc2cc[nH]c(=O)c2c2cc(F)ccc12 | 274 | 
8 | O=c1[nH]ccc2nc(NC3CCC3)c3ccc(F)cc3c12 | 75 | 
9 | CC(C)[C@@H](Nc1nc2cc[nH]c(=O)c2c2cnccc12)C(F)(F)F | 1 | IC50 (Mus musculus [7]): 2700 nM; IC50 [2]: 40 nM; IC50 (Mus musculus [8]): 2700 nM; clearance [3]: 68 mL/min/kg; Vd [4]: 8 L/kg; logD [5]: 2.33; solubility [6]: 120 µM (≈ 40.4 µg/mL)
10 | CN1CCC(N(c2nc3cc[nH]c(=O)c3c3cc(F)ccc23)C2CC2)CC1 | 540 | 

Now from value to compound, other results behind:

Row | IC50 [1] [nM] | Compound | other results
11 | 11500 | CC(Nc1nc2cc[nH]c(=O)c2cc1-c1nc(-c2ccccc2)no1)C(C)(C)C (stereo unspecified) | 
12 | 27 | CC(C)[C@H](C)Nc1nc2cc[nH]c(=O)c2c2cc(F)ccc12 | 
13 | 630 | CC(Nc1nc2cc[nH]c(=O)c2cc1-c1ccccn1)C(C)(C)C (stereo unspecified) | 
14 | 1400 | O=c1[nH]ccc2nc(NCc3ccncc3)c(-c3ccccc3)cc12 | 
15 | 29000 | CC(C)(C)CNc1nc2cc[nH]c(=O)c2cc1-c1ccc(F)cc1 | 
16 | 26 | CC(Nc1nc2cc[nH]c(=O)c2c2cc(F)ccc12)C(C)(C)C (stereo unspecified) | 
17 | 1 | CC(C)[C@@H](Nc1nc2cc[nH]c(=O)c2c2cc(F)ccc12)C(F)(F)F | IC50 [2]: 50 nM; clearance [3]: 21 mL/min/kg; Vd [4]: 6 L/kg; logD [5]: 3.34; solubility [6]: 3 µM (≈ 1.06 µg/mL)
18 | 512 | O=c1[nH]ccc2nc(NCC3CCS(=O)(=O)C3)c3ccc(F)cc3c12 (stereo unspecified) | 
19 | 1110 | O=c1[nH]ccc2nc(NCc3ccccn3)c3ccc(F)cc3c12 | 
20 | 139 | CC(C)Nc1nc2cc[nH]c(=O)c2c2cc(F)ccc12 | 
21 | 53 | O=c1[nH]ccc2nc(NCc3c(Cl)cccc3Cl)c3ccc(F)cc3c12 | 
22 | 55 | CC(C)[C@H](Nc1nc2cc[nH]c(=O)c2c2cc(F)ccc12)C(F)(F)F | 
23 | 3940 | O=c1[nH]ccc2nc(N3CCC(F)(F)C3)c(-c3ccc(F)cc3)cc12 | 
24 | 3160 | CC(C)(CN)CNc1nc2cc[nH]c(=O)c2c2cc(F)ccc12 | 

Reference: ChEMBL document CHEMBL1287746, “The discovery of tricyclic pyridone JAK2 inhibitors. Part 1: hit to lead” (Bioorg Med Chem Lett, 2010)
